Results published in ChEMBL document CHEMBL1201862, “PubChem BioAssay data set” (2004).
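Values below derive from 48-hour exposures of cells grown in 96-well plates, with endpoints linearly interpolated between the two concentrations bracketing the appropriate inhibition level. GI50 = concentration required for 50% inhibition of growth.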 Calls of active or inactive are those of the source. No stated cut-off is given here; in the data, active = GI50 up to about 1.1 µM and inactive = higher.

How the values were obtained:
Test in all cases: NCI anticancer screen, dose series, 48 h
HOP-62 = tested on: HOP-62
SW-620 = tested on: SW-620
OVCAR-3 = tested on: OVCAR-3
PC-3 = tested on: PC-3
SR = tested on: SR
COLO 205 = tested on: COLO 205
UO-31 = tested on: UO-31
A549 = tested on: A549
KM12 = tested on: KM12
LOX IMVI = tested on: LOX IMVI
MDA-MB-435 = tested on: MDA-MB-435
HT-29 = tested on: HT-29
OVCAR-8 = tested on: OVCAR-8
RPMI-8226 = tested on: RPMI-8226
NCI-H23 = tested on: NCI-H23
TK-10 = tested on: TK-10
786-0 = tested on: 786-0
NCI-H522 = tested on: NCI-H522
ACHN = tested on: ACHN
SF-539 = tested on: SF-539
U-251 = tested on: U-251
Malme-3M = tested on: Malme-3M
MDA-MB-231 = tested on: MDA-MB-231
SNB-75 = tested on: SNB-75
EKVX = tested on: EKVX
HCT-15 = tested on: HCT-15
DU-145 = tested on: DU-145
SF-295 = tested on: SF-295
MCF7 = tested on: MCF7
NCI-H226 = tested on: NCI-H226
SF-268 = tested on: SF-268
SK-OV-3 = tested on: SK-OV-3
SK-MEL-5 = tested on: SK-MEL-5
CAKI-1 = tested on: CAKI-1
HCC 2998 = tested on: HCC 2998
NCI/ADR-RES = tested on: NCI/ADR-RES
Hs-578T = tested on: Hs-578T
UACC-257 = tested on: UACC-257
T47D = tested on: T47D
CCRF-CEM = tested on: CCRF-CEM
NCI-H460 = tested on: NCI-H460
A498 = tested on: A498
UACC-62 = tested on: UACC-62
BT-549 = tested on: BT-549
MDA-N = tested on: MDA-N
SNB-19 = tested on: SNB-19
K562 = tested on: K562
OVCAR-4 = tested on: OVCAR-4
OVCAR-5 = tested on: OVCAR-5
HOP-92 = tested on: HOP-92
SK-MEL-2 = tested on: SK-MEL-2
HCT-116 = tested on: HCT-116
MOLT-4 = tested on: MOLT-4
IGROV-1 = tested on: IGROV-1
SN12C = tested on: SN12C
RXF 393 = tested on: RXF 393
HL-60 = tested on: HL-60
SK-MEL-28 = tested on: SK-MEL-28
M14 = tested on: M14

## CCOC(=O)/C=C/[C@@H](CC)O[Si](C(C)C)(C(C)C)C(C)C
HOP-62
  GI50: 67.6 µM (inactive)
SW-620
  GI50: > 100 µM (inactive)
OVCAR-3
  GI50: > 100 µM (inactive)
PC-3
  GI50: 61.7 µM (inactive)
SR
  GI50: 74.6 µM (inactive)
COLO 205
  GI50: > 100 µM (inactive)
UO-31
  GI50: > 100 µM (inactive)
A549
  GI50: > 100 µM (inactive)
KM12
  GI50: > 100 µM (inactive)
LOX IMVI
  GI50: > 100 µM (inactive)
MDA-MB-435
  GI50: > 100 µM (inactive)
HT-29
  GI50: > 100 µM (inactive)
OVCAR-8
  GI50: > 100 µM (inactive)
RPMI-8226
  GI50: 50.6 µM (inactive)
NCI-H23
  GI50: > 100 µM (inactive)
TK-10
  GI50: > 100 µM (inactive)
786-0
  GI50: > 100 µM (inactive)
NCI-H522
  GI50: > 100 µM (inactive)
ACHN
  GI50: > 100 µM (inactive)
SF-539
  GI50: > 100 µM (inactive)
U-251
  GI50: > 100 µM (inactive)
Malme-3M
  GI50: > 100 µM (inactive)
MDA-MB-231
  GI50: > 100 µM (inactive)
SNB-75
  GI50: > 100 µM (inactive)
EKVX
  GI50: > 100 µM (inactive)
HCT-15
  GI50: > 100 µM
DU-145
  GI50: > 100 µM (inactive)
SF-295
  GI50: 48.4 µM (inactive)
MCF7
  GI50: 90.2 µM (inactive)
NCI-H226
  GI50: > 100 µM (inactive)
SF-268
  GI50: > 100 µM (inactive)
SK-OV-3
  GI50: > 100 µM (inactive)
SK-MEL-5
  GI50: > 100 µM (inactive)
CAKI-1
  GI50: > 100 µM (inactive)
HCC 2998
  GI50: > 100 µM (inactive)
NCI/ADR-RES
  GI50: > 100 µM (inactive)
Hs-578T
  GI50: > 100 µM (inactive)
UACC-257
  GI50: 67.3 µM (inactive)
T47D
  GI50: > 100 µM (inactive)
CCRF-CEM
  GI50: 42.2 µM (inactive)
NCI-H460
  GI50: > 100 µM (inactive)
A498
  GI50: > 100 µM (inactive)
UACC-62
  GI50: > 100 µM (inactive)
BT-549
  GI50: > 100 µM (inactive)
MDA-N
  GI50: > 100 µM (inactive)
SNB-19
  GI50: > 100 µM (inactive)
K562
  GI50: > 100 µM (inactive)
OVCAR-4
  GI50: > 100 µM (inactive)
OVCAR-5
  GI50: > 100 µM (inactive)
HOP-92
  GI50: > 100 µM (inactive)
SK-MEL-2
  GI50: > 100 µM (inactive)
HCT-116
  GI50: > 100 µM (inactive)
MOLT-4
  GI50: > 100 µM (inactive)
IGROV-1
  GI50: > 100 µM (inactive)

## COc1ccc(/C=C2\N=C(N3CCCC(CO)C3)NC2=O)cc1 (stereo unspecified)
HOP-62
  GI50: > 100 µM (inactive)
SW-620
  GI50: > 100 µM (inactive)
OVCAR-3
  GI50: > 100 µM (inactive)
PC-3
  GI50: > 100 µM (inactive)
SR
  GI50: > 100 µM (inactive)
COLO 205
  GI50: > 100 µM (inactive)
UO-31
  GI50: > 100 µM (inactive)
A549
  GI50: > 100 µM (inactive)
KM12
  GI50: > 100 µM (inactive)
LOX IMVI
  GI50: > 100 µM (inactive)
MDA-MB-435
  GI50: > 100 µM (inactive)
HT-29
  GI50: > 100 µM (inactive)
OVCAR-8
  GI50: > 100 µM (inactive)
RPMI-8226
  GI50: > 100 µM (inactive)
NCI-H23
  GI50: > 100 µM (inactive)
TK-10
  GI50: > 100 µM (inactive)
786-0
  GI50: > 100 µM (inactive)
NCI-H522
  GI50: > 100 µM (inactive)
ACHN
  GI50: > 100 µM (inactive)
SF-539
  GI50: > 100 µM (inactive)
SN12C
  GI50: > 100 µM (inactive)
RXF 393
  GI50: > 100 µM (inactive)
U-251
  GI50: > 100 µM (inactive)
Malme-3M
  GI50: > 100 µM (inactive)
MDA-MB-231
  GI50: > 100 µM (inactive)
SNB-75
  GI50: > 100 µM (inactive)
EKVX
  GI50: > 100 µM (inactive)
HCT-15
  GI50: > 100 µM
DU-145
  GI50: > 100 µM (inactive)
SF-295
  GI50: > 100 µM (inactive)
HL-60
  GI50: > 100 µM (inactive)
MCF7
  GI50: > 100 µM (inactive)
NCI-H226
  GI50: > 100 µM (inactive)
SF-268
  GI50: > 100 µM (inactive)
SK-OV-3
  GI50: > 100 µM (inactive)
SK-MEL-5
  GI50: > 100 µM (inactive)
CAKI-1
  GI50: > 100 µM (inactive)
HCC 2998
  GI50: > 100 µM (inactive)
NCI/ADR-RES
  GI50: > 100 µM (inactive)
Hs-578T
  GI50: > 100 µM (inactive)
UACC-257
  GI50: > 100 µM (inactive)
T47D
  GI50: > 100 µM (inactive)
CCRF-CEM
  GI50: > 100 µM (inactive)
SK-MEL-28
  GI50: > 100 µM (inactive)
M14
  GI50: > 100 µM (inactive)
UACC-62
  GI50: > 100 µM (inactive)
BT-549
  GI50: > 100 µM (inactive)
MDA-N
  GI50: > 100 µM (inactive)
SNB-19
  GI50: > 100 µM (inactive)
OVCAR-4
  GI50: > 100 µM (inactive)
OVCAR-5
  GI50: > 100 µM (inactive)
HOP-92
  GI50: > 100 µM (inactive)
SK-MEL-2
  GI50: > 100 µM (inactive)
HCT-116
  GI50: > 100 µM (inactive)
MOLT-4
  GI50: > 100 µM (inactive)
IGROV-1
  GI50: > 100 µM (inactive)

## Oc1cccc(-c2cn3cc(Cl)ccc3n2)c1
HOP-62
  GI50: > 100 µM (inactive)
SW-620
  GI50: > 100 µM (inactive)
OVCAR-3
  GI50: 31.7 µM (inactive)
PC-3
  GI50: 29.2 µM (inactive)
SR
  GI50: 47.2 µM (inactive)
COLO 205
  GI50: 33.6 µM (inactive)
UO-31
  GI50: 36.7 µM (inactive)
A549
  GI50: 51.5 µM (inactive)
KM12
  GI50: 37.2 µM (inactive)
LOX IMVI
  GI50: 45.7 µM (inactive)
MDA-MB-435
  GI50: 34.9 µM (inactive)
HT-29
  GI50: 43.4 µM (inactive)
OVCAR-8
  GI50: 31.4 µM (inactive)
NCI-H23
  GI50: 51.8 µM (inactive)
TK-10
  GI50: 35.4 µM (inactive)
786-0
  GI50: 66.2 µM (inactive)
NCI-H522
  GI50: 15.9 µM (inactive)
ACHN
  GI50: 43.9 µM (inactive)
SN12C
  GI50: 57.1 µM (inactive)
RXF 393
  GI50: 23.1 µM (inactive)
U-251
  GI50: 69.2 µM (inactive)
Malme-3M
  GI50: 51.6 µM (inactive)
MDA-MB-231
  GI50: > 100 µM (inactive)
EKVX
  GI50: 24.3 µM (inactive)
HCT-15
  GI50: 30.7 µM
DU-145
  GI50: 31 µM (inactive)
SF-295
  GI50: 39.4 µM (inactive)
HL-60
  GI50: 5.4 µM (inactive)
MCF7
  GI50: 17.3 µM (inactive)
NCI-H226
  GI50: 91.4 µM (inactive)
SF-268
  GI50: 55.1 µM (inactive)
SK-OV-3
  GI50: 96.6 µM (inactive)
SK-MEL-5
  GI50: 16.6 µM (inactive)
CAKI-1
  GI50: 70 µM (inactive)
HCC 2998
  GI50: 38.4 µM (inactive)
NCI/ADR-RES
  GI50: 34.5 µM (inactive)
Hs-578T
  GI50: 97.1 µM (inactive)
UACC-257
  GI50: 25.6 µM (inactive)
T47D
  GI50: 12.7 µM (inactive)
CCRF-CEM
  GI50: 7.03 µM (inactive)
SK-MEL-28
  GI50: 59.8 µM (inactive)
M14
  GI50: 49.7 µM (inactive)
NCI-H460
  GI50: 34 µM (inactive)
A498
  GI50: 45.3 µM (inactive)
UACC-62
  GI50: 35.1 µM (inactive)
BT-549
  GI50: 51.1 µM (inactive)
MDA-N
  GI50: 39.8 µM (inactive)
SNB-19
  GI50: > 100 µM (inactive)
K562
  GI50: 42.1 µM (inactive)
OVCAR-4
  GI50: 32.1 µM (inactive)
OVCAR-5
  GI50: 72.6 µM (inactive)
HOP-92
  GI50: 91.8 µM (inactive)
SK-MEL-2
  GI50: 38.8 µM (inactive)
HCT-116
  GI50: 57.9 µM (inactive)
MOLT-4
  GI50: 32.7 µM (inactive)
IGROV-1
  GI50: 16.7 µM (inactive)
